Entries after “also recorded” stand apart in the source; their conditions may differ.
Columns and labels:
Assay type in all cases: in vivo, human
[1] = tested on: recurrent glioblastoma; experiment: L19-TNFα treatment of patients with recurrent glioblastoma (tumor perfusion, necrosis, disease status)
Description: Three patients with recurrent glioblastoma were treated with L19-TNFα at a dose level of 10 μg/kg. […] This is surprising considering that the Progression Free Survival (PFS) for recurrent glioblastoma is 1.5 months.

[2] = tested on: glioblastoma (WHO grade IV) at first recurrence; experiment: L19-TNF plus lomustine in a patient with glioblastoma at first recurrence, contrast enhanced MRI; settings: one patient; 13 μg/kg L19-TNF iv on Days 1, 3, 5, 22, 24, 26 with 90 mg/m2 lomustine on Day 1; 40 days after baseline image
Description: This example describes the effect of a combination therapy on a patient with recurrent glioblastoma after chemoradiotherapy followed by temozolomide maintenance therapy.
A patient with glioblastoma (WHO grade IV) at first recurrence, received 90 mg/m2 lomustine (CCNU) on Day 1. Additionally, this patient received 13 μg/kg L19-TNF, by iv infusion, on Days 1, 3, 5, 22, 24 and 26.
The patient had been pretreated for newly diagnosed glioblastoma with resection and chemoradiotherapy followed by temozolomide maintenance therapy.
Contrast enhanced MRI was performed initially, before receiving the lomustine and L19-TNF (baseline image; see FIG. 3A) and 40 days after baseline image (FIG. 3B).

[3] = tested on: recurrent glioblastoma; experiment: Immunohistochemistry of tumor tissue before and after treatment with L19-TNFα; settings: re-section tissue after treatment vs tissue from first surgery, patient with progressive disease
[4] = three patients, 10 μg/kg, twenty-four hours after the infusion

L19-TNFα
disease status, one patient ([1]; 10 μg/kg, one of three patients, after three months): progressive disease | disease status, two patients ([1]; 10 μg/kg, two of three patients, at six months after treatment, with increasing area of necrosis in the tumor region): stable disease | overall tumor perfusion [1, 4]: decrease | tumor necrosis [1, 4]: emerging tumor necrosis | glioma lesions (size) ([1]; two patients, FIG. 1A, after two and six cycles): gradually shrink | necrotic core of the lesions ([1]; two patients, FIG. 1A, before vs after treatment): expanding necrotic core | tumour size on contrast enhanced MRI [2]: substantially reduced | cleaved caspase-3 levels in tumor [3]: increase; also recorded: increased levels | tumor-infiltrating CD4 T-cells [3]: significant increase | tumor-infiltrating CD8 T-cells [3]: significant increase

From patent publication US12377161B2, “TNF-alpha immunoconjugate therapy for the treatment of brain tumors” (priority 2020, dated 2025)
